Experiments:
[1] = system: EDG-3, EDG-5, EDG-6 and EDG-8; test: EDG-3, -5, -6 and -8 GTP [γ-35S] binding assays (selectivity versus EDG-1); type: biochemical, human
Description: (§1) A. In Vitro: GPCR Activation Assay Measuring GTP [γ-^35S] Binding to Membranes Prepared from CHO Cells Expressing Human EDG Receptors
Solutions of test compounds ranging from 10 mM to 0.01 nM are prepared in DMSO. S1P is diluted in 4% BSA solution as positive controls. The desired amount of membrane prep is diluted with ice-cold assay buffer (20 mM HEPES, pH 7.4, 100 mM NaCl, 10 mM MgCl2, 0.1% Fatty acid-free BSA, 5 μM GDP) and vortexed well. 2 μl or less of compound is distributed into each well of a round-bottom 96-well polystyrene assay plate, followed by addition of 100 μl of diluted membranes (3-10 μg/well) and kept on ice until the addition of hot GTPγS. [^35S]-GTPγS is diluted 1:1000 (v/v) with cold assay buffer and 100 μl is added into each well. The reaction is carried out at room temperature for 90 minutes before the membranes are harvested onto Perkin-Elmer Unifilter® GF/B-96 filter plate using a Packard Filtermate Harvester. After several washes with wash buffer (20 mM HEPES, pH 7.4, 100 mM NaCl, 10 mM MgCl2), and a rinse with 95% ethanol, the filter is dried in a 37° C. oven for 30 minutes. MicroScint-20 is added and the plate sealed for scintillation counting on TopCount. EC50 values are obtained by fitting the GTP [γ-^35S] binding curves (raw data) with the dose response curve-fitting tool of GraphPad Prism. […]

human EDG-1 = biological target: T1, human EDG-1 (Homo sapiens, UniProt P21453); test: EDG-1 (S1P1) GTP [γ-35S] binding assay; type: biochemical; conditions: GTP [γ-35S] binding to membranes from CHO cells expressing human EDG-1
T1 construct: c-myc (N); expressed in transfected cells
Description: as §1
EDG-1 (S1P1) GTP [γ-^35S] binding assay: Homogenized membranes are prepared from CHO cell clones stably expressing a human EDG-1 N-terminal c-myc tag. Cells are grown in suspension in two 850 cm^2 roller bottles for three or fours days before harvesting. The cells are centrifuged down, washed once with cold PBS, and resuspended in ≦20 ml of Buffer A (20 mM HEPES, pH 7.4, 10 mM EDTA, EDTA-free complete protease inhibitor cocktail [1 tablet/25 ml]). The cell suspension is homogenized on ice, using a Polytron homogenizer at 30000 rpm at three intervals of 15 seconds each. The homogenate is first centrifuged at 2000 rpm on a tabletop low speed centrifuge for 10 minutes. The supernatant, after passing through a cell strainer, is then re-centrifuged at 50,000×g for 25 minutes at 4° C. The pellet is resuspended into buffer B (15% glycerol, 20 mM HEPES, pH 7.4, 0.1 mM EDTA, EDTA-free complete protease inhibitor cocktail [1 tablet/10 ml]). Protein concentration of the prep is determined using the BCA Protein Assay kit (Pierce) using BSA as standard. The membranes are aliquoted and kept frozen at −80° C.
Solutions of test compounds ranging from 10 mM to 0.01 nM are prepared in DMSO. S1P is diluted in 4% BSA solution as positive controls. […]

blood lymphocytes = test: Measurement of circulating lymphocytes (blood lymphocyte depletion); type: in vivo, Mice (C57b1/6 male); conditions: Mus musculus, po, mice, orally by gavage, blood collected 6 and 24 hours after administration, read-out: ED50, effective dose required displaying 50% of blood lymphocyte depletion
Description: Measurement of circulating lymphocytes: Compounds are dissolved in DMSO and diluted to obtain a final concentration of 4% DMSO (v/v, final concentration) and then further diluted in a constant volume of Tween80 25%/H2O, v/v. Tween80 25%/H2O (200 μl), 4% DMSO, and FTY720 (10 μg) are included as negative and positive controls, respectively. Mice (C57b1/6 male, 6-10 week-old) are administered 250-300 μL of compound solution orally by gavages under short isoflurane anesthesia.
Blood is collected from the retro-orbital sinus 6 and 24 hours after drug administration under short isoflurane anesthesia. Whole blood samples are subjected to hematology analysis. Peripheral lymphocyte counts are determined using an automated analyzer. Subpopulations of peripheral blood lymphocytes are stained by fluorochrome-conjugated specific antibodies and analyzed using a fluorescent activating cell sorter (Facscalibur). Two mice are used to assess the lymphocyte depletion activity of each compound screened. The result is an ED50, which is defined as the effective dose required displaying 50% of blood lymphocyte depletion.

T1 sequence (P21453 whole entry): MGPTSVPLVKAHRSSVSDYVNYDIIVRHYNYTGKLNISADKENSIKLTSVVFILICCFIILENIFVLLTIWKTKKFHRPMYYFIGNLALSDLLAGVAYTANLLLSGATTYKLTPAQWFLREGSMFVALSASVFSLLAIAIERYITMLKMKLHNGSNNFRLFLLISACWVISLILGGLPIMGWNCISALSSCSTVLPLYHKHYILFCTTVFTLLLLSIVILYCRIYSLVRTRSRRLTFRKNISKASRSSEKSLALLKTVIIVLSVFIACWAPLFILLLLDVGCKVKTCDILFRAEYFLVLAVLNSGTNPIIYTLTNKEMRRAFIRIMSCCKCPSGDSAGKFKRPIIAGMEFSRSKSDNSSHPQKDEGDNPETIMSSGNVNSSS

- selective for EDG-1 compared to one or more of the other receptors including EDG-3, EDG-5, EDG-6 and EDG-8 [1]: at least 1000 fold
- EC50 (human EDG-1): 600 pM
Structure (SMILES): O=C(O)CCNCc1ccc2sc(-c3ccc(-c4ccccc4)c(C(F)(F)F)c3)cc2c1 [Example 1, 3-{[2-(2-Trifluoromethyl-biphenyl-4-yl)-benzo[b]thiophen-5-ylmethyl]-amino}-propionic acid]
- ED50 (blood lymphocytes): 0.2 mg/kg

From patent publication US7750021B2, “Immunosuppressant compounds and compositions” (IRM LLC, priority 2003, dated 2010)
